Tests used:
[1] = target: T1, HSV-1 helicase-primase complex (Human herpesvirus 1, UniProt P10189+P10236); test: Helicase-primase inhibitory activity (DNA-dependent ATPase activity, Malachite Green); type: biochemical
T1 construct: made in house; host or cells: Baculovirus expression; The baculoviruses came from Dr. Nigel D. Stow (MRC, UK)
Description: Using an Baculoviruses for expressing respective proteins of UL5, UL52 and UL8 which constitute an HSV-1 helicase-primase complex (obtained from Dr. Nigel D. Stow, Medical Research Council, UK), a recombinant HSV-1 helicase-primase complex was prepared by the method described in a report of Crute et al. (J. B. C., 1991, Vol. 266, p. 21252-21256). Detection of DNA-dependent ATPase activity of the HSV-1 helicase-primase complex was carried out in reference to the method described in a report of Crute et al. (J. B. C., 1991, Vol. 266, p. 4484-4488). In brief, 520 ng of the HSV-1 helicase-primase complex was allowed to undergo the reaction at 30° C. for 30 minutes in a reaction liquid containing 20 μg/ml of heat-denatured bovine sperm DNA and 2 mM ATP, and then concentration of phosphoric acid formed through the hydrolysis of ATP into ADP and monophosphate by the activity of ATPase was determined by adding the same volume of Malachite Green reagent (0.03% Malachite Green, 0.1% ammonium molybdate, 4.8% sulfuric acid) and measuring the resulting absorbance at 650 nm. The 50% inhibition concentration (IC50 value) of each compound to be tested for HSV-1 helicase-primase DNA-dependent ATPase was calculated as the concentration which halves the phosphoric acid concentration at the time of not adding the compound.

HSV-1 strain WT-51 = test: HSV-1 skin infection mouse model (in vivo test); set-up: species or system HR-1 hairless mouse; conditions: for Lesion inhibitory ratio (%): oral twice a day for 5 days
Description: Using a cutaneous HSV-1 infection mouse model prepared in accordance with the method of H. Machida et al. (Antiviral Res., 1992, 17, 133-143), in vivo activity of the pharmaceutical composition of the present invention was tested. The skin of each HR-1 hairless mouse [female, 7 weeks of age] was scratched lengthwise and breadthwise several times using a needle and a virus suspension (HSV-1 strain WT-51, 1.5×10^4 PFU/15 μl) was dropped to the scarified region for infection, while anesthetized with diethyl ether.
Regarding the compounds to be tested, VCV was used as the polymerase inhibitor and made into a methyl cellulose suspension, the compound of Preparation 2, N-(4-methylphenyl)-N-(2-{[4-(1,3-oxazol-4-yl)phenyl]amino}-2-oxoethyl)tetrahydro-2H-thiopyran-4-carboxamide 1,1-dioxide, which is described later, was used as the helicase-primase inhibitor and made into a methyl cellulose suspension, and they were orally administered at the doses of the following table twice a day for 5 days starting after 3 hours of the infection. The symptom of the skin lesion caused by HSV-1 infection were classified in the following scores for 17 days:
Score 0: no signs of infection.
Score 1: localized, barely perceptible small vesicles.
Score 2: slight vesicle spread.
Score 3: large patches of vesicles formed.
Score 4: zosteriform vesicles.
Score 5: large patches of ulcers formed.
Score 6: zosteriform with severe large ulcers.
Score 7: hind limb paralysis or death.
The AUC value was calculated from each group's mean disease score, and the disease inhibitory rate of the group administered with each test compound to the placebo group was calculated using the AUC.
In the same manner as described in the above, VCV was used as the polymerase inhibitor and the compound of Preparation 27, N-(2,6-dimethylphenyl)-N-(2-{[4-(1,2,4-oxadiazol-3-yl)phenyl]amino}-2-oxoethyl)tetrahydro-2H-thiopyran-4-carboxamide 1,1-dioxide, which is described later, was used as the helicase-primase inhibitor, with the results shown in the following table.

T1 sequence (P10236 whole entry): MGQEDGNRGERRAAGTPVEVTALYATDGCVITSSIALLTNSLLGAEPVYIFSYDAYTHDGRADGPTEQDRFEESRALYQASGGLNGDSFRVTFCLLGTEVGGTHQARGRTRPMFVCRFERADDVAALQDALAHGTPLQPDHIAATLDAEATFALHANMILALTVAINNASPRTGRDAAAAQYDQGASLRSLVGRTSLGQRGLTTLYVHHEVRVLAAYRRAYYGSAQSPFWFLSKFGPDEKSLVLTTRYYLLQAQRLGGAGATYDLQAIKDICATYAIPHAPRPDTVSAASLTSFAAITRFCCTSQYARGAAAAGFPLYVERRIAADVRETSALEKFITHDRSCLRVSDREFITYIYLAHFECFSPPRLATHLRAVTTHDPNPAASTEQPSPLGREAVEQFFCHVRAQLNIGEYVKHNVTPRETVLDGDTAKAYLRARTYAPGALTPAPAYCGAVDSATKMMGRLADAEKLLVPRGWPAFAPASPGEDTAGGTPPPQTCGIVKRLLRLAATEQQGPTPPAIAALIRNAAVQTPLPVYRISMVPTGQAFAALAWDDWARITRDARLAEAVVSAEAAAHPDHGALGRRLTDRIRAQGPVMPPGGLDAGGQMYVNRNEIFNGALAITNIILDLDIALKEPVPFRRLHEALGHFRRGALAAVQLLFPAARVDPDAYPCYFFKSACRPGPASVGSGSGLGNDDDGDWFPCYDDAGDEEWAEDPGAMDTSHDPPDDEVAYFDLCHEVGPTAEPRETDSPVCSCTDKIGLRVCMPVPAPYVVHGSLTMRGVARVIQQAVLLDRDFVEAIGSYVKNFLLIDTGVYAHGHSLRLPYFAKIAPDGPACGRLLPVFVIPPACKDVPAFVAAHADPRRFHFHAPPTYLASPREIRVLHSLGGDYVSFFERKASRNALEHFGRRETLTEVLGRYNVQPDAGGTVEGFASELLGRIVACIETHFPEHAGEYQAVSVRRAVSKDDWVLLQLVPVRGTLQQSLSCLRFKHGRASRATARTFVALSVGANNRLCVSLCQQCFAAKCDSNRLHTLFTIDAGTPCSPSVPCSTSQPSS
T1 sequence (P10192 whole entry, further chain): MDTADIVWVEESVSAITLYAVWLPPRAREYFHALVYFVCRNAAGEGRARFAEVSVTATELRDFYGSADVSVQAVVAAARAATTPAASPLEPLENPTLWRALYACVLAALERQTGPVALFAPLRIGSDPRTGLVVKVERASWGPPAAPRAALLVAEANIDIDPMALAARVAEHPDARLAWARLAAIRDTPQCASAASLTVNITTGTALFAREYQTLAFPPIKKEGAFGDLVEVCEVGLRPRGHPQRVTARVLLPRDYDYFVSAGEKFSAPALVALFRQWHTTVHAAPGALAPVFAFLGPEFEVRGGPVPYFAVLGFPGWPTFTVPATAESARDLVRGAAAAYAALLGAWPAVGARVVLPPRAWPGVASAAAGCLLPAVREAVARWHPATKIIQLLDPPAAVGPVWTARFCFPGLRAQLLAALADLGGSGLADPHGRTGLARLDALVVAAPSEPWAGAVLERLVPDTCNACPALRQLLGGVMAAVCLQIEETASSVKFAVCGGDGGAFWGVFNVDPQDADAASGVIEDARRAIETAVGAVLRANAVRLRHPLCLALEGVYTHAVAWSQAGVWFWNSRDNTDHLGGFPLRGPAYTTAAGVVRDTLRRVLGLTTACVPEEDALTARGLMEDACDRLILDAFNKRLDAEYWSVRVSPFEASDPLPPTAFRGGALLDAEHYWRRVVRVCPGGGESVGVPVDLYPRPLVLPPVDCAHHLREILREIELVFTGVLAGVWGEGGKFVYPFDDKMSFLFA
T1 sequence (P10189 whole entry): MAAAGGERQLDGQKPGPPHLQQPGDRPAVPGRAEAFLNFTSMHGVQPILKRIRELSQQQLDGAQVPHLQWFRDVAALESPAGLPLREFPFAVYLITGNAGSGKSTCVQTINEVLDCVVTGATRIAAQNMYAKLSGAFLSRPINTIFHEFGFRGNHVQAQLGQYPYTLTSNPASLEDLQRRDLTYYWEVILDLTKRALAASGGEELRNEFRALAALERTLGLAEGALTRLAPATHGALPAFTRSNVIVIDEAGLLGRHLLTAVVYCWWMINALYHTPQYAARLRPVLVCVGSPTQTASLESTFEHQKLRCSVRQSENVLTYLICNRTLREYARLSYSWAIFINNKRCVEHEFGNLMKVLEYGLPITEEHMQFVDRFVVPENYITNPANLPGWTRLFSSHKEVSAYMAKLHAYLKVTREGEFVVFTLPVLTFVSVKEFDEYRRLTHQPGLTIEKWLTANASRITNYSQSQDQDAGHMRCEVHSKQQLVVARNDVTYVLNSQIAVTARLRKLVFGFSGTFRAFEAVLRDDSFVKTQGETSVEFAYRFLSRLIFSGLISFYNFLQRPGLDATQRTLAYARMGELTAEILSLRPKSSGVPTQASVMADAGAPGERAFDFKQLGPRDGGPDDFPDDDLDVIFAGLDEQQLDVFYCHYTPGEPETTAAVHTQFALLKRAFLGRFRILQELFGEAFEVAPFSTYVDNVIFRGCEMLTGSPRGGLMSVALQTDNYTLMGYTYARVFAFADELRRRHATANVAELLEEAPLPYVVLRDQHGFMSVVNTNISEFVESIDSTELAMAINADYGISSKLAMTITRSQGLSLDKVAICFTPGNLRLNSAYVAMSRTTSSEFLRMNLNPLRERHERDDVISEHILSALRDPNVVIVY

## Cc1cccc(C)c1N(CC(=O)Nc1ccc(-c2ncon2)cc1)C(=O)C1CCS(=O)(=O)CC1 [Preparation 27, N-(2,6-dimethylphenyl)-N-(2-{[4-(1,2,4-oxadiazol-3-yl)phenyl]amino}-2-oxoethyl)tetrahydro-2H-thiopyran-4-carboxamide 1,1-dioxide]
[1]
  IC50: 110 nM
HSV-1 strain WT-51; Table 3, compound of Preparation 27 1 mg/kg, VCV 0 mg/kg
  Lesion inhibitory ratio (%): 33%
HSV-1 strain WT-51; Table 3, compound of Preparation 27 3 mg/kg, VCV 0 mg/kg
  Lesion inhibitory ratio (%): 68%
HSV-1 strain WT-51; Table 3, concomitant use: VCV 10 mg/kg + compound of Preparation 27 1 mg/kg
  Lesion inhibitory ratio (%): 66%
HSV-1 strain WT-51; Table 3, concomitant use: VCV 10 mg/kg + compound of Preparation 27 3 mg/kg
  Lesion inhibitory ratio (%): 86%
HSV-1 strain WT-51; Table 3, concomitant use: VCV 30 mg/kg + compound of Preparation 27 1 mg/kg
  Lesion inhibitory ratio (%): 88%
HSV-1 strain WT-51; Table 3, concomitant use: VCV 30 mg/kg + compound of Preparation 27 3 mg/kg
  Lesion inhibitory ratio (%): 100%
HSV-1 strain WT-51; concomitant use groups VCV 10 mg/kg + 3 mg/kg, VCV 30 mg/kg + 1 mg/kg, VCV 30 mg/kg + 3 mg/kg of the compound of Preparation 27, compared with VCV single administration
  lesion inhibitory activity (in words): good lesion inhibitory activity in comparison with the VCV single administration group
HSV-1 strain WT-51; concomitant use of 30 mg/kg of VCV with 3 mg/kg of the compound of Preparation 27
  inhibition of the lesions (in words): completely inhibited the lesions

## CC(C)[C@H](N)C(=O)OCCOCn1cnc2c(=O)[nH]c(N)nc21 [VCV, valacyclovir, reference compound]
HSV-1 strain WT-51; Table 2, VCV 10 mg/kg alone
  Lesion inhibitory ratio (%): 45%
HSV-1 strain WT-51; Table 2, VCV 30 mg/kg alone
  Lesion inhibitory ratio (%): 57%
HSV-1 strain WT-51; Table 3, VCV 10 mg/kg alone
  Lesion inhibitory ratio (%): 42%
HSV-1 strain WT-51; Table 3, VCV 30 mg/kg alone
  Lesion inhibitory ratio (%): 52%

## Cc1ccc(N(CC(=O)Nc2ccc(-c3cocn3)cc2)C(=O)C2CCS(=O)(=O)CC2)cc1 [Preparation 2, N-(4-methylphenyl)-N-(2-{[4-(1,3-oxazol-4-yl)phenyl]amino}-2-oxoethyl)tetrahydro-2H-thiopyran-4-carboxamide 1,1-dioxide]
[1]
  IC50: 84 nM
HSV-1 strain WT-51; Table 2, compound of Preparation 2 1 mg/kg, VCV 0 mg/kg, AUC of disease score over 17 days vs placebo
  Lesion inhibitory ratio (%): 38%
HSV-1 strain WT-51; Table 2, compound of Preparation 2 3 mg/kg, VCV 0 mg/kg
  Lesion inhibitory ratio (%): 52%
HSV-1 strain WT-51; Table 2, concomitant use: VCV 10 mg/kg + compound of Preparation 2 1 mg/kg
  Lesion inhibitory ratio (%): 76%
HSV-1 strain WT-51; Table 2, concomitant use: VCV 10 mg/kg + compound of Preparation 2 3 mg/kg
  Lesion inhibitory ratio (%): 83%
HSV-1 strain WT-51; Table 2, concomitant use: VCV 30 mg/kg + compound of Preparation 2 1 mg/kg
  Lesion inhibitory ratio (%): 86%
HSV-1 strain WT-51; Table 2, concomitant use: VCV 30 mg/kg + compound of Preparation 2 3 mg/kg
  Lesion inhibitory ratio (%): 91%
HSV-1 strain WT-51; concomitant use group of VCV with the compound of Preparation 2, compared with VCV single administration
  lesion inhibitory activity (in words): good lesion inhibitory activity in comparison with the VCV single administration group
HSV-1 strain WT-51; concomitant use of 30 mg/kg of VCV with 3 mg/kg of the compound of Preparation 2
  inhibition of the lesions (in words): almost completely inhibited the lesions

Reference: patent US20090042915A1, “PREVENTIVE OR THERAPEUTIC AGENT FOR HERPESVIRUS-RELEATED DISEASE” (ASTELLAS PHARMA INC., priority 2005, published 2009)
